In patent US10350147B2, “Enamel products and methods of use” (The Research Foundation for The State University of New York, priority 2014, dated 2019):
“Also recorded” adds a separate entry of the source.

What was measured:
[1] = system: oral epithelial keratinocytes of the cell line IMOK; experiment: Immunocytochemistry of marker expression in treated IMOK oral epithelial keratinocytes; format: cell-based, mouse
Method: In the studies described below, the ameloblast-like cells originated from oral epithelial keratinocytes. We employed the cell line IMOK, an immortalized oral keratinocyte cell line of mouse origin, which was a gift from Dr. Garrett-Sinha (SUNY-Buffalo; Parikh et al., Arc. Oral Biol. 53:1091-1100, 2008).
To thaw frozen IMOK cells, we removed a cryovial containing 10^6 frozen cells from liquid nitrogen storage, immediately placed it into a 37° C. water bath, and gently swirled the vial. When the cells were thawed, we transferred the vial into a laminar flow hood, and added 10 ml of pre-warmed serum free CnT-02 growth medium (CELLNTEC; FPS 1:1000 added to the medium). We centrifuged the cell suspension (˜1000 rpm for 4 minutes) then checked the vial visually for the presence of a complete pellet. The supernatant was aseptically decanted without disturbing the cell pellet, which we gently resuspended in 7 ml of CnT-02 medium. We transferred the resuspended cells into a T25 flask and incubated it at 37° C. with a humidified atmosphere of 5% CO2 The medium was changed every other day, and when the cells became 90% confluent, we split them 1:5 and plated them in a 12-well plate as follows. After discarding the culture medium from the flask, we washed the cells with PBS then added 2 mL of a pre-warmed dissociation reagent (TrypLE; GIBCO), gently shaking the flask to completely cover the cell layer. We transferred the flask to the incubator (37° C., 5% CO2) for 20 minutes, checking under a microscope every 5 minutes for dissociation of the cells. When ≥90% of the cells detached, we added 8 ml of pre-warmed CnT-02 growth medium (CELLNTEC), dispersing it with a pipette over the cell layer surface several times. The cell suspension was transferred to a 50 ml conical tubed and centrifuged (1000 rpm for 4 minutes). We resuspended the cell pellet in 5 ml of pre-warmed serum free CnT-02 growth medium (CELLNTEC) and split the cells in 1:5 ratios. We diluted the cell suspension plate and pipetted the appropriate volume into new 12-well plates, returning the cells to the incubator (37° C., 5% CO2).
We added the vehicle (4 mM HCl+1 mg/mL BSA) to the control side and TGFβ1 (5 ng/mL) to the experimental side and mixed gently. We changed the medium every other day for 10 days. To fix the cells, we aspirated the medium, washed the cells with PBS then fixed them with 100% methanol for 20 minutes. Following fixation, we washed the fixed cells with PBS (×3) and stored them at 4° C.
Immunocytochemistry General Protocol: (1) wash sample slide in 0.15 M PBS (pH 7.2; 4×5 minutes); (2) incubate in 4% Normal Goat Serum (NGS) for 20 minutes (2 ml of 0.15 M PBS+80 μL NGS); (3) incubate with the primary antibody solution (details below; 90 minutes); (4) wash with […] (3 times×10 minutes); (5) block with 4% NGS in 0.15 M PBS (20 minutes); (6) incubate with the secondary antibody (Biotin-SP-conjugated goat anti-rabbit IgG; 60 minutes); (7) wash with 0.15 M PBS (3 times×10 minutes); (8) prepare and incubate in ABC solution (details below; 60 minutes (5 mL of 0.15 M PBS+ABC solution 600 μL); (9) wash with 0.1 M AI buffer (175 mM sodium acetate and 10 mM imidazole, pH 7.2) for 3 times×10 minutes [14.35 g sodium acetate, 0.68 g imidazole in 1000 mL H2O]; (10) carry out DAB reaction for 5-20 minutes, checking often; and (11) wash for 15 minutes in 0.05 M PBS with 0.04% TritonX-100 to stop the reaction.
The primary antibody solution contains 0.15 M PBS with 0.5% Triton X-100; 4% NGS in [0.15 M PBS with 0.5% TritonX-100; and the primary antibody at a 1:500 dilution (2 mL PBS+0.04% Tx 100+80 μL NGS+4 μL primary antibody). The secondary antibody solution contains 0.15 M PBS with 0.5% Triton X-100 and the secondary antibody at a 1:2500 dilution (Goat anti Rabbit IgG) [2 ml PBS+0.04% Tx 100+0.8 uL GαR]. To prepare the ABC (Avidin Biotin Complex) solution, add 1 drop of A, 1 drop of B, to 500 μL of 0.15 M PBS in an Eppendrof tube. […]

[2] = system: developing tooth buds; conditions: serotonin added to organotypic cultures; reversed with antagonists; cited from earlier work
[3] = IMOK cells before and after TGFβ1 treatment
[4] = IMOK cells, TGFβ1 5 ng/ml, 10 days, immunocytochemistry

Row | Compound | amelogenin induction at 10 μM serotonin ([1]; 10 μM serotonin for 10 days) | amelogenin expression after serotonin treatment ([1]; IMOK cells pre-treated with TGFβ1, then further treated with serotonin) | effect on tooth development [2] | Oct4 expression [1, 3] | collagen1 expression [1, 3] | amelogenin expression after TGFβ1 treatment alone ([1]; IMOK cells before and after TGFβ1 treatment, no serotonin) | E-cadherin expression [1, 4] | N-cadherin expression [1, 4] | cell morphology after treatment ([1]; IMOK cells, TGFβ1 treatment versus confluent control)
1 | NCCc1c[nH]c2ccc(O)cc12 [serotonin, reference compound] | induction of amelogenin | induction of amelogenin expression; also recorded: express amelogenin | accelerated tooth development |  |  |  |  |  | 
2 | TGFβ1: recombinant human transforming growth factor β1 (R&D system) used as dedifferentiation agent |  |  |  | acquire the expression of Oct4 | lose the expression of collagen1 | do not express amelogenin | lost and reduction in E-cadherin expression and loss of E-cadherin expression | gained; also recorded: increase in N-cadherin expression; also recorded: induced | cells enlarge in size, separate and spread out
